Test results: ChEMBL document CHEMBL3885881, “DrugMatrix”

Species: Rattus norvegicus
Test: DrugMatrix - Regimen: Daily Repeat
Format: toxicity, organism-based, Sprague-Dawley
Design: regimen Daily Repeat, gender Male, age 6-8 weeks
Conditions: in vivo, ip, 0 mg/kg, route intraperitoneal, dose level Control, vehicle 100 % SALINE; for ABSOLUTE BASOPHIL / ABSOLUTE EOSINOPHIL / ABSOLUTE LYMPHOCYTE / ABSOLUTE MONOCYTE / ABSOLUTE SEGMENTED NEUTROPHIL / BASOPHIL / EOSINOPHIL / ERYTHROCYTE COUNT / HEMATOCRIT / HEMOGLOBIN / LEUKOCYTE COUNT / LYMPHOCYTE / MEAN CORPUSCULAR HEMOGLOBIN / MEAN CORPUSCULAR HEMOGLOBIN CONCENTRATION / MEAN CORPUSCULAR VOLUME / MONOCYTE / NEUTROPHIL / PLATELET COUNT: tissue Blood
[1] = 120 h, tissue Plasma, time 5 day
[2] = […], tissue Plasma, time 14 day
[3] = […], tissue Plasma, time 28 day

TRANSPLATIN
ABSOLUTE BASOPHIL (120 h, time 5 day): 32 cells/µL | ABSOLUTE EOSINOPHIL (120 h, time 5 day): 110 cells/µL | ABSOLUTE LYMPHOCYTE (120 h, time 5 day): 6630 cells/µL | ABSOLUTE MONOCYTE (120 h, time 5 day): 140 cells/µL | ABSOLUTE SEGMENTED NEUTROPHIL (120 h, time 5 day): 1170 cells/µL | BASOPHIL (120 h, time 5 day): 0.38% | EOSINOPHIL (120 h, time 5 day): 1.28% | ERYTHROCYTE COUNT (120 h, time 5 day): 7.45 x10E6/uL | HEMATOCRIT (120 h, time 5 day): 45.74% | HEMOGLOBIN (120 h, time 5 day): 14.72 G/DL | LEUKOCYTE COUNT (120 h, time 5 day): 8.11 x10E3/uL | LYMPHOCYTE (120 h, time 5 day): 81.3% | MEAN CORPUSCULAR HEMOGLOBIN (120 h, time 5 day): 19.76 pg | MEAN CORPUSCULAR HEMOGLOBIN CONCENTRATION (120 h, time 5 day): 32.16 G/DL | MEAN CORPUSCULAR VOLUME (120 h, time 5 day): 61.38 fL | MONOCYTE (120 h, time 5 day): 1.76% | NEUTROPHIL (120 h, time 5 day): 14.9% | PLATELET COUNT (120 h, time 5 day): 1322.4 x10E3/uL | ALANINE AMINOTRANSFERASE [1]: 25.8 u/L | ALBUMIN [1]: 3.64 G/DL | ASPARTATE AMINOTRANSFERASE [1]: 81.4 u/L | BLOOD UREA NITROGEN [1]: 14.4 mg/dL | CHOLESTEROL [1]: 69.2 mg/dL | CREATINE PHOSPHOKINASE [1]: 303.2 u/L | CREATININE [1]: 0.56 mg/dL | GLUCOSE [1]: 125.4 mg/dL | LACTATE DEHYDROGENASE [1]: 105.4 u/L | LIPASE [1]: 22.4 u/L | POTASSIUM [1]: 5.52 MEQ/L | SODIUM [1]: 147 MEQ/L | TOTAL BILIRUBIN [1]: 0.2 mg/dL | TOTAL PROTEIN [1]: 6.1 G/DL | URIC ACID [1]: 1.06 mg/dL | ABSOLUTE BASOPHIL ([…], time 14 day): 130 cells/µL | ABSOLUTE EOSINOPHIL ([…], time 14 day): 140 cells/µL | ABSOLUTE LYMPHOCYTE ([…], time 14 day): 13500 cells/µL | ABSOLUTE MONOCYTE ([…], time 14 day): 400 cells/µL | ABSOLUTE SEGMENTED NEUTROPHIL ([…], time 14 day): 2330 cells/µL | BASOPHIL ([…], time 14 day): 0.72% | EOSINOPHIL ([…], time 14 day): 0.86% | ERYTHROCYTE COUNT ([…], time 14 day): 7.74 x10E6/uL | HEMATOCRIT ([…], time 14 day): 45.98% | LEUKOCYTE COUNT ([…], time 14 day): 16.61 x10E3/uL | LYMPHOCYTE ([…], time 14 day): 81.34% | MEAN CORPUSCULAR HEMOGLOBIN ([…], time 14 day): 18 pg | MEAN CORPUSCULAR HEMOGLOBIN CONCENTRATION ([…], time 14 day): 30.22 G/DL | MEAN CORPUSCULAR VOLUME ([…], time 14 day): 59.4 fL | MONOCYTE ([…], time 14 day): 2.46% | NEUTROPHIL ([…], time 14 day): 14.14% | PLATELET COUNT ([…], time 14 day): 1445.5 x10E3/uL | ABSOLUTE BASOPHIL ([…], time 28 day): 91 cells/µL | ABSOLUTE EOSINOPHIL ([…], time 28 day): 110 cells/µL | ABSOLUTE LYMPHOCYTE ([…], time 28 day): 9910 cells/µL | ABSOLUTE MONOCYTE ([…], time 28 day): 210 cells/µL | ABSOLUTE SEGMENTED NEUTROPHIL ([…], time 28 day): 1560 cells/µL | BASOPHIL ([…], time 28 day): 0.77% | EOSINOPHIL ([…], time 28 day): 0.92% | ERYTHROCYTE COUNT ([…], time 28 day): 8.21 x10E6/uL | HEMATOCRIT ([…], time 28 day): 47.53% | HEMOGLOBIN ([…], time 28 day): 15.65 G/DL | LEUKOCYTE COUNT ([…], time 28 day): 11.91 x10E3/uL | LYMPHOCYTE ([…], time 28 day): 83.34% | MEAN CORPUSCULAR HEMOGLOBIN ([…], time 28 day): 19.07 pg | MEAN CORPUSCULAR HEMOGLOBIN CONCENTRATION ([…], time 28 day): 32.93 G/DL | MEAN CORPUSCULAR VOLUME ([…], time 28 day): 57.9 fL | MONOCYTE ([…], time 28 day): 1.68% | NEUTROPHIL ([…], time 28 day): 12.97% | PLATELET COUNT ([…], time 28 day): 1323.8 x10E3/uL | ALANINE AMINOTRANSFERASE [2]: 31.6 u/L | ALBUMIN [2]: 3.66 G/DL | ALKALINE PHOSPHATASE [2]: 228.6 u/L | ASPARTATE AMINOTRANSFERASE [2]: 79.6 u/L | BLOOD UREA NITROGEN [2]: 11.2 mg/dL | CHLORIDE [2]: 107 MEQ/L | CHOLESTEROL [2]: 57 mg/dL | CREATININE [2]: 0.5 mg/dL | GLUCOSE [2]: 124.4 mg/dL | LACTATE DEHYDROGENASE [2]: 106.4 u/L | LIPASE [2]: 24.4 u/L | PHOSPHORUS [2]: 10.52 mg/dL | POTASSIUM [2]: 6.34 MEQ/L | SODIUM [2]: 149.2 MEQ/L | TOTAL BILIRUBIN [2]: 0.2 mg/dL | TOTAL PROTEIN [2]: 6.48 G/DL | URIC ACID [2]: 0.94 mg/dL | ALANINE AMINOTRANSFERASE [3]: 30 u/L | ALBUMIN [3]: 3.71 G/DL | ALKALINE PHOSPHATASE [3]: 186.8 u/L | ASPARTATE AMINOTRANSFERASE [3]: 78.2 u/L | BLOOD UREA NITROGEN [3]: 14.2 mg/dL | CHOLESTEROL [3]: 44.9 mg/dL | CREATINE PHOSPHOKINASE [3]: 334.3 u/L | CREATININE [3]: 0.6 mg/dL | GLUCOSE [3]: 147.2 mg/dL | LACTATE DEHYDROGENASE [3]: 123.1 u/L | LIPASE [3]: 9.6 u/L | PHOSPHORUS [3]: 10.01 mg/dL | POTASSIUM [3]: 6.57 MEQ/L | SODIUM [3]: 149.5 MEQ/L | TOTAL BILIRUBIN [3]: 0.21 mg/dL | TOTAL PROTEIN [3]: 6.66 G/DL | URIC ACID [3]: 1.26 mg/dL
